{
  "source": "patent US12692471B2",
  "about": "“High aspect ratio devices and methods for vitrification of biological samples by rapid cooling” (The General Hospital Corporation, priority 2020, dated 2026)",
  "key": {"C. parvum oocysts [1]": {"tested_on": "C. parvum oocysts", "assay": "Oocyst viability by propidium iodide (PI) exclusion, flow cytometry", "assay_type": "cell-based, Cryptosporidium parvum", "details": "for viability (PI exclusion): pre-freeze, 50% DMSO, 20% bleach condition", "method": "To increase the intracellular concentration of CPA, oocysts were bleached with various concentrations of bleach-5% or 20% and then incubated with CPA cocktails consisting of trehalose (Sigma) and DMSO (Sigma) at different concentrations. Briefly, bleached oocysts were first dehydrated in 1.6 M or 1 M trehalose solution for 10 min and then incubated for another 5-15 min with DMSO achieving its final concentration of 30% or 50% (ambient conditions were used throughout). The DMSO/trehalose cocktail was then diluted by incubation with excess PBS (at ratio 1:100) for 30 min at room temperature and removed by centrifugation (18,000×g, 2 min). Cytotoxicity attributable to the CPA cocktail was measured by inclusion of PI (Sigma) at 10 μg/mL using flow cytometry (ACCURI® C6, BD Life Sciences) and was normalized to its control in PBS for each condition.\nIn an effort to maximize the concentration of intracellular and extracellular CPA without compromising oocyst viability, oocysts were gradually exposed to higher concentrations of DMSO by two-step addition. Here, 6-week-old bleached oocysts (5% or 20%) were first dehydrated in 1.6 M trehalose for 10 min. DMSO was added to achieve 0.8 M trehalose/30% DMSO solution and incubated for 5 min. The second addition of DMSO led to a final concentration of 0.5 M trehalose/50% DMSO and was incubated for 1 min. CPA cocktail was then diluted as described above. Cytotoxicity attributable to CPA cocktail was measured by inclusion of PI and was normalized to the untreated oocyst control in PBS.\n(§1) Bleached (20%) C. parvum oocysts at 1-2, 6 and 12 weeks of age were cryopreserved as described above using a two-step DMSO addition protocol, such that final concentration of 0.5 M trehalose/50% DMSO was achieved. […] Pre-freeze and post-freeze oocyst viability was measured by PI exclusion at 10 μg/mL using flow cytometry and by an in vitro infectivity assay. […]\nFor evaluation of cryopreservation in insemination straws and cryovials, pre-freeze and post-freeze viability was measured only by PI exclusion as described above."}, "IFN-γ knockout mice": {"tested_on": "IFN-γ knockout mice", "assay": "In vivo infectivity of cryopreserved oocysts", "method": "C. parvum oocysts at 2, 6 and 12 weeks of age were bleached (20%) and cryopreserved in the vitrification cassettes as described above using a two-step DMSO addition protocol with final concentration of 0.5 M trehalose/50% DMSO. Infectivity of cryopreserved oocysts was evaluated in 8-week-old female IFN-γ knockout mice bred under pathogen-free conditions (Jackson Laboratory, Bar Harbor, ME, USA). All mice experiments were conducted in an AAALAC accredited institution in compliance with the study protocol No. G2017-107 approved by the Tufts University Institutional Animal Care and Use Committee in accordance with the Guide for the Care and Use of Laboratory Animals (National Research Council). Mice were randomly assigned into groups of three by a blinded animal caretaker, however the investigators were not blinded during this experiment.\nThe animal care, inoculation and monitoring procedures were performed as described elsewhere (Jaskiewicz et al., Cryopreservation of infectious Cryptosporidium parvum oocysts. Nat. Commun. 9, 2883 (2018)), with modifications. Mice were immunosuppressed throughout the course of the experiment by administration of dexamethasone in drinking water at concentration 10 mg/L. Three days after immunosuppressive treatment started, each mouse received 30,000 PI^− cryopreserved oocysts in PBS suspension by oral gavage. […] Mice negative for signs of infection were monitored until 11 DPI. Intensity of fecal shedding was measured daily by inspection of the acid-fast stained fecal smear slides, prepared from a single fecal pellet of approximately equal size, for presence of oocysts in 30 fields (1000×).\nThe animal experiments which produced negative cryopreservation outcome were performed as described above with exception of few procedural details. A summary table describing the different cryopreservation methods evaluated and the corresponding outcome can be found in Table 1. […]"}, "C. parvum oocysts [2]": {"tested_on": "C. parvum oocysts", "assay": "In vitro infectivity of oocysts in MDBK cells", "assay_type": "cell-based, Cryptosporidium parvum", "method": "All CPA cocktails described in FIG. 2A were further tested for infectivity in the in vitro model of epithelial cell infection using MDBK cells. Twenty thousand cells were seeded into each well of a 96-well culturing plate (Falcon) and maintained for two days to reach confluence (defined at 4×10^4/well). Oocysts were prepared for infection by bleaching and incubation with CPA cocktail as described above. After removal of diluted CPA in excess PBS, the oocyst pellet was resuspended in 50 μL of 0.75% sodium taurocholate (Sigma) and incubated at 37° C. for 15 min to prompt excystation. Pre-excysted oocysts were then added onto confluent cell monolayers at MOI 1:3. After 24-h co-incubation of parasite with cell monolayer, cultures were washed with PBS to remove extracellular stages of parasite, permeabilized with 100% methanol for 10 min at room temperature and then washed again with PBS. After fixation, cells were blocked with 10% FBS for 30 min and then incubated with fluorescein-labeled Vicia villosa lectin (Vector Laboratories) at concentration […] for 30 min to visualize intracellular stages of the parasite. After the final wash with PBS, monolayers were inspected with a Nikon ECLIPSE® Ti-E microscope (Nikon Instruments Inc.). Four images were taken of each well at 200× magnification using a FITC filter at 100 ms exposure. The number of fluorescing infection foci was then counted by ImageJ 1.48v particle analyzer using the following settings: triangle threshold 15-255, size exclusion at 10-1,000 pixel^2 and circularity at 0.1-1.0. Results depicted in FIG. 2B are expressed as percent infectivity of the control oocysts, which were treated with PBS in place of CPA.\nas §1"}, "[3]": {"details": "30% DMSO 5 min then 50% DMSO 1 min, compared with one-step at same overall concentration"}},
  "data": [
    {"smiles": "C[S+](C)[O-]", "note": "[DMSO, dimethyl sulfoxide]", "values": [
      {"measurement": "pre-freeze viability, two-step vs one-step DMSO addition", "setting": "C. parvum oocysts [1]; [3]", "result": "significantly increased"},
      {"measurement": "viability (PI exclusion)", "setting": "C. parvum oocysts [1]; 5 min incubation", "result": "59.4±2.3", "unit": "%"},
      {"measurement": "viability (PI exclusion)", "setting": "C. parvum oocysts [1]; after 15 min or longer", "result": "17.5±5.0", "unit": "%"},
      {"measurement": "Infectivity in animals after thawing", "setting": "IFN-γ knockout mice; Rectangular capillary, 2 weeks oocysts, trehalose 1.6M/0.8M, One-step 50% DMSO, 5 min, dose 10,000", "result": "No"},
      {"measurement": "Infectivity in animals after thawing", "setting": "IFN-γ knockout mice; Vitrification cassette, 2-12 weeks oocysts, trehalose 1.6M/0.5M, Two-step 30% DMSO/50% DMSO, 5 min/1 min, dose 30,000", "result": "Yes"},
      {"measurement": "Infectivity in animals after thawing", "setting": "IFN-γ knockout mice; Vitrification cassette, 6 weeks oocysts, trehalose 1.6M/0.8M, One-step 50% DMSO, 5 min, dose 10,000", "result": "No"},
      {"measurement": "pre-freeze infectivity in vitro, two-step vs one-step DMSO addition", "setting": "C. parvum oocysts [2]; [3]", "result": "significantly increased"},
      {"measurement": "in vitro infectivity", "setting": "C. parvum oocysts [2]; pre-freeze, 50% DMSO, 5 min incubation, 20% bleach condition, percent of control oocysts in PBS", "result": "38.7±17.0", "unit": "%"},
      {"measurement": "infectivity (in vitro)", "setting": "C. parvum oocysts [2]; pre-freeze, 50% DMSO, after 15 min or longer, 20% bleach condition", "result": "6.4±1.9", "unit": "%"}
    ]}
  ]
}
